Measurements published in PMC8989696, “Characterization of furathiocarb metabolism in in-vitro human liver microsomes and recombinant cytochrome P450 enzymes” (Toxicology Reports, 2022).
Where “and” joins values, the source holds several entries; their conditions need not be identical. Equal values may be shown once. Read-outs that look alike come from different tables or passages of the source.

Columns and labels:
[1] = Furathiocarb biotransformation kinetics in individual human hepatic microsomes (10 donors); format: in vitro ADME; settings: for Km: human
Experimental: The incubation mixture (ﬁnal volume of 200 µl of 0.1 M phosphate buffer) contained 50 and 100 µM furathiocarb, 0.15 mg pooled liver microsomal protein (n = 10), and 1 mM NADPH. The reaction was initiated by NADPH after a 2 min pre-incubation at + 37 °C and was incubated for 30 min at + 37 °C. The reaction stopped with ice-cold acetonitrile containing an internal standard.
(§1) Enzyme kinetic parameters of both the microsomal samples and rCYP enzymes were measured. The incubation mixture contained furathiocarb (2.5, 10, 25, 50, 150 and 300 µM). Incubation times were 20 and 30 min for microsomal samples and rCYPs, respectively. Otherwise incubation mixtures and methods were the same as in metabolite identification. The rate of sum of furathiocarb metabolite formation was linear at least up to 0.15 mg protein/ml and 30 min incubation time in the standard experimental conditions.
The standard incubation mixture contained 50 and 100 µM furathiocarb, 0.15 mg pooled liver microsomal protein (n = 10), and 1 mM NADPH in a ﬁnal volume of 200 µl of 0.1 M phosphate buffer (pH 7.4). Furathiocarb was prepared once a week in dimethylsulfoxide (DMSO; ﬁnal amount in the reaction medium 1.0%). After a 2-min incubation at +37 ◦C in a shaking incubator block, the reaction was started by adding NADPH. The mixture was incubated at +37 ◦C for 30 min and the reaction was stopped with 600 µl of ice-cold acetonitrile containing an internal standard. All incubations were carried out in triplicate.

[2] = 7 cases of acute fatalities, cited from earlier work
CYP2B6 = molecular target: T1, CYP2B6 (Homo sapiens, UniProt P20813); test: in vitro; format: in vitro ADME; set-up: purchased BD Biosciences Discovery Labware (Bedford, MA); host or cells: baculovirus-infected insect cells; settings: pH 7.4, Carbofuran metabolic pathway, rCYP2B6
T1 sequence (P20813 1-491): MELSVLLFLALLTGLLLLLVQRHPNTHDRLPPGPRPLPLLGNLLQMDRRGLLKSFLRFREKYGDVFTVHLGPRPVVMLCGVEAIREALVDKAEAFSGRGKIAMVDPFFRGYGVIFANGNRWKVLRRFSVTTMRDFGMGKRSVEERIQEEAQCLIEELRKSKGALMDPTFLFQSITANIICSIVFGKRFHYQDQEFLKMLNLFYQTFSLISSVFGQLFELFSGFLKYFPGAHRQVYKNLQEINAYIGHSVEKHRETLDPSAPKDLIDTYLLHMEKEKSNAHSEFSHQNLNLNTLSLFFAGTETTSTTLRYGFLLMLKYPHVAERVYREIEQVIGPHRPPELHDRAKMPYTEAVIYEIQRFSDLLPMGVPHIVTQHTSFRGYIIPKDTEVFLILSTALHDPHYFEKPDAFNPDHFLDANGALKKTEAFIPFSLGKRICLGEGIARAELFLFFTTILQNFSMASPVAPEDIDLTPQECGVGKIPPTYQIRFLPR
Experimental: Furathiocarb was incubated with recombinant CYPs (rCYP). The incubation mixture contained rCYPs (50 pmol CYP per ml), 100 µM furathiocarb, and 1 mM NADPH in 200 µl 0.1 M phosphate buffer (pH 7.4). Incubation procedures and chromatographic separation are presented in Supplementary materials.
as §1
To measure the main furathiocarb metabolites of recombinantly expressed CYP enzymes (rCYPs), the standard incubation mixture (200 µl) contained 0.1 M phosphate buffer (pH 7.4), 1 mM NADPH, 100 µM […], and rCYPs (50 pmol CYP per ml). Incubations were carried out according to the manufacturer’s instructions. Shortly, the reaction was started by adding recombinant enzymes to the preincubated eaction mixture (2 min at +37 ◦C), mixed gently and incubated for 30 min at +37 ◦C in an incubator block without agitation. […]

In the case of `CCCCOC(=O)N(C)SN(C)C(=O)Oc1cccc2c1OC(C)(C)C2` [furathiocarb, Furathiocarb], the “CLint, sum of carbofuran metabolic pathway” value ([1]; HLM20) is reported as 310.4 µL (mg protein min), the “CLint, sum of furathiocarb oxidation pathways” value ([1]; HLM20) is reported as 12.63 µL (mg protein min) and the “Vmax, sum of carbofuran metabolic pathway” value ([1]; HLM20) is reported as 19.6 ± 1.7 nmol (mg protein min). For the same molecule, the “Vmax, sum of furathiocarb oxidation pathways” value ([1]; HLM20) was 4.3 ± 0.8 nmol (mg protein min), the “carbofuran pathway / oxidation pathways (CLint ratio)” value ([1]; HLM20) was 24.5 fold and the “CLint, sum of carbofuran metabolic pathway” value ([1]; HLM21) was 339.0 µL (mg protein min). For the same molecule, the “CLint, sum of furathiocarb oxidation pathways” value ([1]; HLM21) was 9.22 µL (mg protein min), the “Vmax, sum of carbofuran metabolic pathway” value ([1]; HLM21) was 22.6 ± 2.5 nmol (mg protein min) and the “Vmax, sum of furathiocarb oxidation pathways” value ([1]; HLM21) was 4.1 ± 1.1 nmol (mg protein min). For the same molecule, the “carbofuran pathway / oxidation pathways (CLint ratio)” value ([1]; HLM21) was 36.8 fold, the “CLint, sum of carbofuran metabolic pathway” value ([1]; HLM22) was 619.7 µL (mg protein min) and the “Vmax, sum of carbofuran metabolic pathway” value ([1]; HLM22) was 44.5 nmol/ (mg protein min) and 44.5 ± 5.1 nmol/ (mg protein min). For the same molecule, the “CLint, sum of carbofuran metabolic pathway” value ([1]; HLM23) was 348.6 µL (mg protein min), the “CLint, sum of furathiocarb oxidation pathways” value ([1]; HLM23) was 13.48 µL (mg protein min) and the “Vmax, sum of carbofuran metabolic pathway” value ([1]; HLM23) was 17.4 ± 1.6 nmol (mg protein min). The “Vmax, sum of furathiocarb oxidation pathways” value ([1]; HLM23) was 3.5 ± 7.3 nmol (mg protein min), the “carbofuran pathway / oxidation pathways (CLint ratio)” value ([1]; HLM23) was 25.9 fold and the “CLint, sum of carbofuran metabolic pathway” value ([1]; HLM24) was 404.5 µL (mg protein min). The “CLint, sum of furathiocarb oxidation pathways” value ([1]; HLM24) was 12.25 µL (mg protein min), the “Vmax, sum of carbofuran metabolic pathway” value ([1]; HLM24) was 21.9 ± 2.1 nmol (mg protein min) and the “Vmax, sum of furathiocarb oxidation pathways” value ([1]; HLM24) was 5.1 ± 1.3 nmol (mg protein min). The “carbofuran pathway / oxidation pathways (CLint ratio)” value ([1]; HLM24) was 33.0 fold, the “CLint, sum of carbofuran metabolic pathway” value ([1]; HLM28) was 779.6 µL (mg protein min) and the “CLint, sum of furathiocarb oxidation pathways” value ([1]; HLM28) was 6.75 µL (mg protein min). The “Vmax, sum of carbofuran metabolic pathway” value ([1]; HLM28) was 43.6 ± 4.7 nmol (mg protein min), the “Vmax, sum of furathiocarb oxidation pathways” value ([1]; HLM28) was 11.5 nmol/ (mg protein min) and 11.5 ± 6.4 nmol/ (mg protein min) and the “carbofuran pathway / oxidation pathways (CLint ratio)” value ([1]; HLM28) was 115 fold and 115.4 fold. The “CLint, sum of carbofuran metabolic pathway” value ([1]; HLM29) was 378.2 µL (mg protein min), the “CLint, sum of furathiocarb oxidation pathways” value ([1]; HLM29) was 10.73 µL (mg protein min) and the “Vmax, sum of carbofuran metabolic pathway” value ([1]; HLM29) was 24.3 ± 2.5 nmol (mg protein min). For the same molecule, the “Vmax, sum of furathiocarb oxidation pathways” value ([1]; HLM29) was 5.3 ± 1.4 nmol (mg protein min), the “carbofuran pathway / oxidation pathways (CLint ratio)” value ([1]; HLM29) was 35.2 fold and the “CLint, sum of carbofuran metabolic pathway” value ([1]; HLM30) was 701.2 µL (mg protein min). For the same molecule, the “CLint, sum of furathiocarb oxidation pathways” value ([1]; HLM30) was 10.99 µL (mg protein min), the “Vmax, sum of carbofuran metabolic pathway” value ([1]; HLM30) was 18.2 ± 1.8 nmol (mg protein min) and the “Vmax, sum of furathiocarb oxidation pathways” value ([1]; HLM30) was 5.1 ± 1.3 nmol (mg protein min). For the same molecule, the “carbofuran pathway / oxidation pathways (CLint ratio)” value ([1]; HLM30) was 64 fold and 63.8 fold, the “CLint, sum of carbofuran metabolic pathway” value ([1]; HLM31) was 244 µl/ (mg protein min) and 244.3 µl/ (mg protein min) and the “CLint, sum of furathiocarb oxidation pathways” value ([1]; HLM31) was 7.0 µl/ (mg protein min) and 7.00 µl/ (mg protein min). For the same molecule, the “Vmax, sum of carbofuran metabolic pathway” value ([1]; HLM31) was 15.5 nmol/ (mg protein min) and 15.5 ± 1.1 nmol/ (mg protein min), the “Vmax, sum of furathiocarb oxidation pathways” value ([1]; HLM31) was 1.7 nmol/ (mg protein min) and 1.7 ± 0.3 nmol/ (mg protein min) and the “carbofuran pathway / oxidation pathways (CLint ratio)” value ([1]; HLM31) was 34.9 fold. For the same molecule, the “CLint, sum of carbofuran metabolic pathway” value ([1]; HLM32) was 399.9 µL (mg protein min), the “CLint, sum of furathiocarb oxidation pathways” value ([1]; HLM32) was 13.04 µL (mg protein min) and the “Vmax, sum of carbofuran metabolic pathway” value ([1]; HLM32) was 15.5 nmol/ (mg protein min) and 15.5 ± 1.4 nmol/ (mg protein min). For the same molecule, the “Vmax, sum of furathiocarb oxidation pathways” value ([1]; HLM32) was 3.7 ± 0.6 nmol (mg protein min), the “carbofuran pathway / oxidation pathways (CLint ratio)” value ([1]; HLM32) was 30.6 fold and the Km ([1]; pH 7.4, HLM20, read-out: Km, sum of carbofuran metabolic pathway) was 63.2 ± 16.3 µM. It also gave a Km ([1]; pH 7.4, HLM20, read-out: Km, sum of furathiocarb oxidation pathways) of 343 ± 128 µM, a Km ([1]; pH 7.4, HLM21, read-out: Km, sum of carbofuran metabolic pathway) of 66.7 ± 20.6 µM and a Km ([1]; pH 7.4, HLM21, read-out: Km, sum of furathiocarb oxidation pathways) of 453 ± 215 µM. It also gave a Km ([1]; pH 7.4, HLM22, read-out: Km, sum of carbofuran metabolic pathway) of 71.8 ± 21.7 µM, a Km ([1]; pH 7.4, HLM23, read-out: Km, sum of carbofuran metabolic pathway) of 50 ± 14.1 µM and a Km ([1]; pH 7.4, HLM23, read-out: Km, sum of furathiocarb oxidation pathways) of 260 ± 117 µM. The Km ([1]; pH 7.4, HLM24, read-out: Km, sum of carbofuran metabolic pathway) was 54.3 ± 16.1 µM, the Km ([1]; pH 7.4, HLM24, read-out: Km, sum of furathiocarb oxidation pathways) was 410 ± 197 µM and the Km ([1]; pH 7.4, HLM28, read-out: Km, sum of carbofuran metabolic pathway) was 55.8 ± 18 µM. It also gave a Km ([1]; pH 7.4, HLM28, read-out: Km, sum of furathiocarb oxidation pathways) of 1710 ± 852 µM, a Km ([1]; pH 7.4, HLM29, read-out: Km, sum of carbofuran metabolic pathway) of 64.2 ± 18.9 µM and a Km ([1]; pH 7.4, HLM29, read-out: Km, sum of furathiocarb oxidation pathways) of 495 ± 237 µM. The Km ([1]; pH 7.4, HLM30, read-out: Km, sum of carbofuran metabolic pathway) was 25.9 ± 9.5 µM, the Km ([1]; pH 7.4, HLM30, read-out: Km, sum of furathiocarb oxidation pathways) was 456 ± 208 µM and the Km ([1]; pH 7.4, HLM31, read-out: Km, sum of carbofuran metabolic pathway) was 63.3 ± 13.4 µM. For the same molecule, the Km ([1]; pH 7.4, HLM31, read-out: Km, sum of furathiocarb oxidation pathways) was 239 ± 79.5 µM, the Km ([1]; pH 7.4, HLM32, read-out: Km, sum of carbofuran metabolic pathway) was 38.8 ± 11.3 µM and the Km ([1]; pH 7.4, HLM32, read-out: Km, sum of furathiocarb oxidation pathways) was 280 ± 102 µM. For the same molecule, the “Ratio carbofuran metabolic pathway / furathiocarb oxidation pathway” value ([1]; range in 10-donor panel of hepatic microsomes) was 24- to 115 fold, the “Concentrations in the blood (average)” value ([2]; n = 7) was 3600 ng/mL and the “Concentrations in the blood (range)” value [2] was 100 to 21600 ng/mL. The Km at 30 min (CYP2B6) was 9.7 ± 3.9 µM.
